Experimental data taken from US10336762B2 (priority 2017, dated 2019).

Columns and labels:
TNFα = assay: cells; assay type: cell-based, human; conditions: Homo sapiens, Monocyte, LPS-stimulated human monocytes, TNFα content; read-out: EC50 TNF
IRAK4 enzyme = IRAK4 enzyme (Homo sapiens (Human), UniProt Q9NWZ3); assay: biochemical; assay type: biochemical; conditions: IRAK4 enzyme, TR-FRET (HTRF), 500 μM ATP
Sequence of IRAK4 enzyme (Q9NWZ3 whole entry): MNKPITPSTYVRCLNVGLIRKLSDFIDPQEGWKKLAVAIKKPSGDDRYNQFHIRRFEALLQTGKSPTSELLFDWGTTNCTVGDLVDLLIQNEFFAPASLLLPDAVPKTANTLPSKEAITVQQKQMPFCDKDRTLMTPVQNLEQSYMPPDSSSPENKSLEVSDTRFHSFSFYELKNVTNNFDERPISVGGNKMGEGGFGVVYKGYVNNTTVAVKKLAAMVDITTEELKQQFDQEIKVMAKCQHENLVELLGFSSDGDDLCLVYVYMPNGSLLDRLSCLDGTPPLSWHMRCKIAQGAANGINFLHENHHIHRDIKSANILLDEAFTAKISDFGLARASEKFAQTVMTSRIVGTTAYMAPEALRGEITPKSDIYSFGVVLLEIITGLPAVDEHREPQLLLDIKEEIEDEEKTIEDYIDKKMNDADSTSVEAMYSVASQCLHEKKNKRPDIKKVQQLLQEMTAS

Row | Structure (SMILES) | EC50 (TNFα) | IC50 (IRAK4 enzyme)
1 | COC(=O)NCCCC(C)(C)Nc1cc(-c2ccc3cc(C#N)cnn23)ncc1C(=O)NC[C@@H](F)C(C)(C)O [Example 720, (R)-methyl (4-((2-(3-cyano-pyrrolo[1,2-b]pyridazin-7-yl)-5-((2-fluoro-3-hydroxy-3-methylbutyl)carbamoyl)pyridin-4-yl)amino)-4-methylpentyl)carbamate] | 243 nM | 2 nM
2 | COC(=O)NCCC(C)(C)Nc1cc(-c2ccc3cc(C#N)cnn23)ncc1C(=O)NC[C@@H](F)C(C)(C)O [Example 721, (R)-methyl (3-((2-(3-cyano-pyrrolo[1,2-b]pyridazin-7-yl)-5-((2-fluoro-3-hydroxy-3-methylbutyl)carbamoyl)pyridin-4-yl)amino)-3-methylbutyl)carbamate] | 87 nM | 1 nM
3 | COC(=O)N1C[C@@H]2[C@H](C1)[C@H]2Nc1cc(-c2ccc3cc(C#N)cnn23)ncc1C(=O)NC[C@@H](F)C(C)(C)O [Example 722, (1R,5S,6s)-methyl 6-((2-(3-cyanopyrrolo[1,2-b]pyridazin-7-yl)-5-(((R)-2-fluoro-3-hydroxy-3-methyl-butyl)carbamoyl)pyridin-4-yl)amino)-3-aza-bicyclo[3.1.0]hexane-3-carboxylate] | 35 nM | < 1 nM
4 | CC(C)(O)[C@H](F)CNC(=O)c1cnc(-c2ccc3cc(C#N)cnn23)cc1N[C@H]1CC[C@H](N2CCC(F)(F)C2)CC1 [Example 723, 6-(3-cyanopyrrolo[1,2-b]pyridazin-7-yl)-4-(((1r,4R)-4-(3,3-difluoropyrrolidin-1-yl)cyclohexyl)amino)-N-((R)-2-fluoro-3-hydroxy-3-methylbutyl)nicotinamide] | 793 nM | 7 nM
5 | CC(C)(O)[C@H](F)CNC(=O)c1cnc(-c2ccc3cc(C#N)cnn23)cc1N[C@H]1CC[C@@H](N2CCC(F)(F)C2)CC1 [Example 724, 6-(3-cyanopyrrolo[1,2-b]pyridazin-7-yl)-4-(((1s,4S)-4-(3,3-difluoropyrrolidin-1-yl)cyclohexyl)amino)-N-((R)-2-fluoro-3-hydroxy-3-methylbutyl)nicotinamide] | 59 nM | < 1 nM
6 | CNC(=O)OC[C@H]1C[C@H](Nc2cc(-c3ccc4cc(C#N)cnn34)ncc2C(=O)NC[C@@H](F)C(C)(C)O)C1 [Example 725] | 23 nM | < 1 nM
7 | COC(=O)NC(C)(C)CCCNc1cc(-c2ccc3cc(C#N)cnn23)ncc1C(=O)NC[C@@H](F)C(C)(C)O [Example 726, (R)-methyl (5-((2-(3-cyanopyrrolo[1,2-b]pyridazin-7-yl)-5-((2-fluoro-3-hydroxy-3-methylbutyl)carbamoyl)pyridin-4-yl)amino)-2-methylpentan-2-yl) carbamate] | 169 nM | 4 nM
8 | COC(=O)NC(C)(C)CCNc1cc(-c2ccc3cc(C#N)cnn23)ncc1C(=O)NC[C@@H](F)C(C)(C)O [Example 727, (R)-methyl (4-((2-(3-cyanopyrrolo[1,2-b]pyridazin-7-yl)-5-((2-fluoro-3-hydroxy-3-methylbutyl)carbamoyl)pyridin-4-yl)amino)-2-methylbutan-2-yl)carbamate] | 203 nM | 3 nM
9 | CC(C)(O)[C@H](F)CNC(=O)c1cnc(-c2ccc3cc(C#N)cnn23)cc1N[C@H]1C[C@H](CNC(=O)OCC(F)F)C1 [Example 728, 2,2-difluoroethyl (((1R,3r)-3-((2-(3-cyanopyrrolo[1,2-b]pyridazin-7-yl)-5-(((R)-2-fluoro-3-hydroxy-3-methylbutyl)carbamoyl)pyridin-4-yl)amino)cyclo-butyl)methyl)carbamate] | 4 nM | < 1 nM
10 | CC(C)(O)[C@H](F)CNC(=O)c1cnc(-c2ccc3cc(C#N)cnn23)cc1N[C@H]1C[C@H](Cn2ccccc2=O)C1 [Example 729, 6-(3-cyanopyrrolo[1,2-b]pyridazin-7-yl)-N-((R)-2-fluoro-3-hydroxy-3-methylbutyl)-4-(((1r,3R)-3-((2-oxopyridin-1(2H)-yl)methyl)cyclobutyl)amino)nicotinamide] | 58 nM | 1 nM
11 | CC(C)(O)[C@H](F)CNC(=O)c1cnc(-c2ccc3cc(C#N)cnn23)cc1N[C@H]1C[C@@H](CO)C1 [Example 730] | 40 nM | < 1 nM
12 | COC(=O)N[C@H]1C[C@@H](CNC(=O)c2cnc(-c3ccc4cc(C#N)cnn34)cc2NC23CCC(O)(CC2)CC3)C1 [Example 731, methyl ((1s,3s)-3-((6-(3-cyanopyrrolo[1,2-b]pyridazin-7-yl)-4-((4-hydroxybicyclo[2.2.2]octan-1-yl)amino)nicotin-amido)methyl)cyclobutyl) carbamate] | 59 nM | < 1 nM
13 | N#Cc1cnn2c(-c3cc(NC45CCC(O)(CC4)CC5)c(C(=O)NC[C@H]4C[C@@H](NC(=O)C5CC5)C4)cn3)ccc2c1 [Example 732, 6-(3-cyanopyrrolo[1,2-b]pyridazin-7-yl)-N-(((1s,3s)-3-(cyclopropane-carboxamido)cyclobutyl)methyl)-4-((4-hydroxy-bicyclo[2.2.2]octan-1-yl)amino)nicotinamide] | 89 nM | 1 nM
14 | COC(=O)N[C@H]1C[C@H](CNC(=O)c2cnc(-c3ccc4cc(C#N)cnn34)cc2NC23CCC(O)(CC2)CC3)C1 [Example 733, methyl ((1r,3r)-3-((6-(3-cyanopyrrolo[1,2-b]pyridazin-7-yl)-4-((4-hydroxybicyclo[2.2.2]octan-1-yl)amino)nicotin-amido)methyl)cyclobutyl) carbamate] | 248 nM | 2 nM
15 | CN(C)C(=O)OC[C@H]1C[C@H](Nc2cc(-c3ccc4cc(C#N)cnn34)ncc2C(=O)NC[C@@H](F)C(C)(C)O)C1 [Example 734, ((1R,3r)-3-((2-(3-cyanopyrrolo[1,2-b]pyridazin-7-yl)-5-(((R)-2-fluoro-3-hydroxy-3-methylbutyl)carbamoyl)pyridin-4-yl)amino)cyclo-butyl)methyldimethyl-carbamate] | 29 nM | < 1 nM
16 | CC(C)(O)[C@H](F)CNC(=O)c1cnc(-c2ccc3cc(C#N)cnn23)cc1N[C@H]1C[C@H](COC(=O)NC2CC2)C1 [Example 735, ((1R,3r)-3-((2-(3-cyano-pyrrolo[1,2-b]pyridazin-7-yl)-5-(((R)-2-fluoro-3-hydroxy-3-methylbutyl)carbamoyl)pyridin-4-yl)amino)cyclobutyl)methyl cyclopropylcarbamate] | 100 nM | 1 nM
17 | CC(C)(O)[C@H](F)CNC(=O)c1cnc(-c2ccc3cc(C#N)cnn23)cc1N[C@H]1C[C@H](COC(=O)NCC(F)F)C1 [Example 736, ((1R,3r)-3-((2-(3-cyano-pyrrolo[1,2-b]pyridazin-7-yl)-5-(((R)-2-fluoro-3-hydroxy-3-methylbutyl)carbamoyl)pyridin-4-yl)amino)cyclobutyl) methyl (2,2-difluoro-ethyl)carbamate] | 48 nM | < 1 nM
18 | CC(C)(O)[C@H](F)CNC(=O)c1cnc(-c2ccc3cc(C#N)cnn23)cc1N[C@H]1C[C@H](COC(=O)N2CCC(F)(F)C2)C1 [Example 737, ((1R,3r)-3-((2-(3-cyano-pyrrolo[1,2-b]pyridazin-7-yl)-5-(((R)-2-fluoro-3-hydroxy-3-methylbutyl)carbamoyl)pyridin-4-yl)amino)cyclobutyl) methyl 3,3-difluoro-pyrrolidine-1-carboxylate] | 26 nM | < 1 nM
19 | CC(C)(O)[C@H](F)CNC(=O)c1cnc(-c2ccc3cc(C#N)cnn23)cc1N[C@H]1C[C@H](COC(=O)N2CC(F)(F)C2)C1 [Example 738, ((1R,3r)-3-((2-(3-cyano-pyrrolo[1,2-b]pyridazin-7-yl)-5-(((R)-2-fluoro-3-hydroxy-3-methylbutyl)carbamoyl)pyridin-4-yl)amino)cyclobutyl) methyl 3,3-difluoro-azetidine-1-carboxylate] | 29 nM | < 1 nM
20 | N#Cc1cnn2c(-c3cc(NC45CCC(O)(CC4)CC5)c(C(=O)NCC4(F)CCC4)cn3)ccc2c1 [Example 739, 6-(3-cyanopyrrolo[1,2-b]pyridazin-7-yl)-N-((1-fluorocyclobutyl)methyl)-4-((4-hydroxybicyclo[2.2.2]octan-1-yl)amino) nicotinamide] | 277 nM | 4 nM
21 | CC(C)(F)CNC(=O)c1cnc(-c2ccc3cc(C#N)cnn23)cc1NC12CCC(O)(CC1)CC2 [Example 740, 6-(3-cyanopyrrolo[1,2-b]pyridazin-7-yl)-N-(2-fluoro-2-methylpropyl)-4-((4-hydroxybicyclo[2.2.2]octan-1-yl)amino) nicotinamide] | 265 nM | 4 nM
22 | COC(=O)N1CC[C@H](CNC(=O)c2cnc(-c3ccc4cc(C#N)cnn34)cc2NC23CCC(O)(CC2)CC3)C1 [Example 741, (R)-methyl 3-((6-(3-cyano-pyrrolo[1,2-b]pyridazin-7-yl)-4-((4-hydroxybicyclo[2.2.2]octan-1-yl)amino)nicotin-amido)methyl)pyrrolidine-1-carboxylate] | 124 nM | < 1 nM
23 | COC(=O)N1CC[C@@H](CNC(=O)c2cnc(-c3ccc4cc(C#N)cnn34)cc2NC23CCC(O)(CC2)CC3)C1 [Example 742, (S)-methyl 3-((6-(3-cyano-pyrrolo[1,2-b]pyridazin-7-yl)-4-((4-hydroxy-bicyclo[2.2.2]octan-1-yl)amino)nicotinamido)methyl)pyrrolidine-1-carboxylate] | 126 nM | 1 nM
24 | CNC(=O)OC[C@H](F)CNC(=O)c1cnc(-c2ccc3cc(C#N)cnn23)cc1NC12CCC(O)(CC1)CC2 [Example 743, (R)-3-(6-(3-cyano-pyrrolo[1,2-b]pyridazin-7-yl)-4-((4-hydroxy-bicyclo[2.2.2]octan-1-yl)amino)nicotin-amido)-2-fluoropropyl methylcarbamate] | 54 nM | < 1 nM
25 | COC(=O)N1CC(CNC(=O)c2cnc(-c3ccc4cc(C#N)cnn34)cc2NC23CCC(O)(CC2)CC3)C1 [Example 744, methyl 3-((6-(3-cyano-pyrrolo[1,2-b]pyridazin-7-yl)-4-((4-hydroxy-bicyclo[2.2.2]octan-1-yl)amino)nicotinamido)methyl)azetidine-1-carboxylate] | 157 nM | 2 nM
